Test results from patent US7462598B2, “Antimicrobial theta defensins, analogs thereof, and methods of use” (priority 2002, dated 2008).
Bridge positions count the residues as written; N and C are the ends. Peptide text beside a SMILES is read from it.

Legend:
[1] = tested on: E. coli ML35; experiment: Agar diffusion assay; type: cell-based, Escherichia coli; conditions: diameter of clearing, FIG. 3
Method: Briefly, 10-μl wells were bored in a 9-cm^2 plate of agarose, buffered with 10 mM 1,4-piperazinebis(ethanesulfonic acid) (PIPES), pH 7.4, containing 5 mM glucose, and seeded with 1×10^6 mid-log phase cells. Five-μl aliquots of peptides, dissolved in 0.01% HOAc at 10-300 μg/ml, were added to each well. After incubation at 37° C. for 2 h, the seeded agar was overlaid with molten agarose containing 6% trypticase soy broth (for bacteria) or Sabouraud dextrose broth (for fungi). Plates were incubated at 37° C. for 18-24 h, and antimicrobial activity was determined by measuring the diameter of clearing around each well.

[2] = tested on: C. albicans 16820; experiment: Cell-suspension microbicidal assay (MMC); type: cell-based, Candida albicans; conditions: lowest concentration that reduced cell viability by 99.9%; 10 mM PIPES, 5 mM glucose, pH 7.4; 2 h 37° C.
Procedure, shortened: (§1)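 Log-phase microbes (2×10^6 CFU/ml) exposed to two-fold peptide dilutions (0.062-8.0 μg/ml) in 10 mM PIPES, 5 mM glucose, pH 7.4, 2 h at 37 °C, then diluted 1:10 to 1:10^6 in broth and grown 24-48 h. MMC is the lowest concentration giving ≥99.9% killing (no pellet at 1:10^3).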

[3] = tested on: S. aureus 502a, E. coli ML35, and C. albicans 16820; experiment: Cell-suspension microbicidal assay, statements across the test organisms (lowest MMC, overall ranges); type: cell-based
Procedure, shortened: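 Log-phase organisms (2×10^6 CFU/ml) were exposed for 2 h at 37° C. to peptide (0.062–8.0 μg/ml final) in 10 mM PIPES/5 mM glucose, pH 7.4, then serially diluted in broth and grown 24–48 h. MMC was defined as ≥99.9% killing (no pellet at 1:10^3). SI was calculated as concentration giving 3% hemolysis in PBS divided by lowest MMC.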

[4] = tested on: E. coli ML35; experiment: Membrane permeabilization assay (ONPG hydrolysis); type: cell-based, Escherichia coli; conditions: rates at 1 μg/ml concentration of each peptide
Procedure, shortened: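 ONPG hydrolysis by log-phase E. coli ML35 (1×10^6 CFU/ml) in 10 mM PIPES pH 7.4 with 3 mM ONPG, peptides at 0-8.0 μg/ml final; A405 followed for 60 min. Control: 0-4 μg/ml peptide incubated with recombinant β-galactosidase and 3 mM ONPG.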

[5] = tested on: E. coli ML35; experiment: Cell-suspension microbicidal assay (MMC); type: cell-based, Escherichia coli; conditions: lowest concentration that reduced cell viability by 99.9%; 10 mM PIPES, 5 mM glucose, pH 7.4; 2 h 37° C.
Procedure, shortened: as §1

[6] = target: T1, recombinant β-galactosidase (Escherichia coli, UniProt P00722); experiment: Inhibition of purified β-galactosidase (ONPG hydrolysis); type: biochemical; conditions: 4 μg/ml, the highest peptide concentration tested; 10 nM enzyme
T1 construct: gift from Dr. Donald P. Satchell, University of California, Irvine, Department of Pathology
Method: Dose-dependent rates of ONPG hydrolysis were determined using 10 nM of purified β-galactosidase.
The effect of each peptide on β-galactosidase-dependent ONPG hydrolysis was determined by incubating 0-4 μg/ml of each peptide with recombinant β-galactosidase (a gift from Dr. Donald P. Satchell, University of California, Irvine, Department of Pathology) and 3 mM ONPG as described above.

[7] = tested on: S. aureus 502a; experiment: Cell-suspension microbicidal assay (MMC); type: cell-based, Staphylococcus aureus; conditions: lowest concentration that reduced cell viability by 99.9%; 10 mM PIPES, 5 mM glucose, pH 7.4; 2 h 37° C.
Procedure, shortened: as §1

[8] = tested on: E. coli ML35; experiment: Microbicidal assay by colony counting (Example I); type: cell-based, Escherichia coli
Method: The limit of detection (1 colony per plate) was equal to 1×10^3 CFU/ml in the incubation mixture.
Microbicidal activity of each peptide was determined by incubating 2×10^6 CFU/ml with peptides (0.5-12 μg/ml) in 50 μl of 10 mM PIPES buffer containing 5 mM glucose, pH 7.4. […] After 37° C. incubation for 18-48 h, colonies were counted and cell survival was expressed as CFU/ml.

T1 sequence (P00722 2-1024): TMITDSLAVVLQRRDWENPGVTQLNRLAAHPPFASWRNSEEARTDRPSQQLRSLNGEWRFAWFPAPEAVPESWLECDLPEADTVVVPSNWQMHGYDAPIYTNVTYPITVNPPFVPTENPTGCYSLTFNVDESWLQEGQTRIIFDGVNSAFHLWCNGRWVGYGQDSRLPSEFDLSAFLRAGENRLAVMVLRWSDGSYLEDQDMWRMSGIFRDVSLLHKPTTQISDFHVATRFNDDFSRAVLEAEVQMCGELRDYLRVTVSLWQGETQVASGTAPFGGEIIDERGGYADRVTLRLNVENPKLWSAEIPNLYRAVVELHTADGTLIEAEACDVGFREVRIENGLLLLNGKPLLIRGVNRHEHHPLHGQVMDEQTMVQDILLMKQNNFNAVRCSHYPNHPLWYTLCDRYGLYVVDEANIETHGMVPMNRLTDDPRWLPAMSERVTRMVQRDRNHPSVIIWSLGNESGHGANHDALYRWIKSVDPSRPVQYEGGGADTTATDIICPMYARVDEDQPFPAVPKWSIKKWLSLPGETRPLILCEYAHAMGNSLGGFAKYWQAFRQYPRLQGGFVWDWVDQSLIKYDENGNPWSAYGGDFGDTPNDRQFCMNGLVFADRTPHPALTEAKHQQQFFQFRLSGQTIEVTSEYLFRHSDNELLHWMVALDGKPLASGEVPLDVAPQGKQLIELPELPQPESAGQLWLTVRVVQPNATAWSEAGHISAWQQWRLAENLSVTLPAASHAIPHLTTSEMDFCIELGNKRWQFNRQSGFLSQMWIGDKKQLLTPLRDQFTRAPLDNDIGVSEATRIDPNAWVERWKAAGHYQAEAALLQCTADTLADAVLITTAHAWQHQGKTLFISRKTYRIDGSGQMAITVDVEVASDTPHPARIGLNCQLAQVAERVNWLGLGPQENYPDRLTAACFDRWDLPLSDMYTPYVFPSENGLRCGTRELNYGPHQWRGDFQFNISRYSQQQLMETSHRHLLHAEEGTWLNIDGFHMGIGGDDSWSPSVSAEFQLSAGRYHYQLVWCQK

CC(C)C[C@@H]1NC(=O)[C@@H]2CSSC[C@H](NC(=O)[C@H](CCCNC(=N)N)NC(=O)[C@@H]3CSSC[C@H](NC1=O)C(=O)N[C@@H](CCCNC(=N)N)C(=O)N[C@@H](CCCNC(=N)N)C(=O)NCC(=O)N[C@@H](C(C)C)C(=O)N3)C(=O)N[C@@H](CC(C)C)C(=O)N[C@H]1CSSC[C@H](NC(=O)[C@H](C(C)C)NC(=O)CNC(=O)[C@H](CCCNC(=N)N)NC(=O)[C@H](CCCNC(=N)N)NC1=O)C(=O)N[C@@H](CCCNC(=N)N)C(=O)N2 [RTD-3] (cyclo(CLCRRGVCRCLCRRGVCR); disulfide 1-10, 3-8, 12-17)
fold less active than RTD-1 and RTD-2 against E. coli [1]: 2- to 3 fold | MMC, C. albicans [2]: 1.0 µg/mL | MMC, range over the test organisms ([3]; S. aureus, E. coli and C. albicans, 10 mM PIPES, 5 mM glucose, pH 7.4): 1 to 2 µg/mL | M ([3]; peptide concentration that kill 99.9% of either S. aureus, E. coli, or C. albicans, lowest MMC value): 1 µg/mL | ONPG hydrolysis [4]: 9.2 (A405/sec) · 10^−5 | MMC, E. coli [5]: 2.0 µg/mL | reduction of ONPG hydrolysis by purified β-galactosidase [6]: 50% | MMC, S. aureus [7]: 1.0 µg/mL | amount of peptide required to achieve the microbicidal effect of RTD-1 and 2 ([8]; killing of E. coli, 2 h): approximately twice as much of the peptide was required | activity against E. coli compared with RTD-1 and -2 ([8]; longer incubation times (4 or 6 h)): nearly equivalent
